In US20030216324A1, “Airway mucus secretion inhibitors” (priority 2000, published 2003):

Assays:
[1] = system: augmentative airway mucus secretion; conditions: airway inflammation model by ozone exposure (lesion similar to chronic bronchitis); cited from earlier work
[2] = system: augmentative mucus secretion in guinea pig trachea; experiment: Suppressive effect on augmentative secretion by antigen challenge (ovalbumin-sensitized guinea pig, mucus score by PAS-Alcian Blue); type: in vivo; conditions: OA-sensitized guinea pig; test drug 100 mg/kg oral; 5% OA inhaled 30 minutes after drug; trachea removed 10 minutes later
Procedure: Suppressive Effect on Augmentative Secretion by Antigen Challenge
Egg albumin (Ovalbumin:OA) (70 mg/kg) is administered and sensitized to guinea pig into the peritoneal cavity on the first experiment day and 8th day. The test drug (100 mg/kg) was oral administered to the sensitized guinea pig on 22nd experiment day. 5%OA was inhaled for 2 minutes 30 minutes after the test drug was administered, and the trachea was removed 10 minutes later. It was dyed with PAS-Alcian Blue, and the augmentative mucus secretion was evaluated according to the level of the decrease in mucus score.
As a test drug, 2-[5-amino-6-oxo-2-phenyl-1,6-dihydro-1-pyrimidinyl]-N-[1-[[5-(t-butyl)-1,3,4-oxadiazole-2-yl]carbonyl]-2-methylpropyl]acetamide (Compound 34) was used.

| Compound | augmentative airway mucus secretion [1] | mucus score (augmentative mucus secretion, PAS-Alcian Blue dye) [2] |
| --- | --- | --- |
| CC(C)(C)C(=O)Oc1ccc(S(=O)(=O)Nc2ccccc2C(=O)NCC(=O)O)cc1 [ONO-5046] | suppress | – |
| CC(C)C(NC(=O)Cn1c(-c2ccccc2)ncc(N)c1=O)C(=O)c1nnc(C(C)(C)C)o1 (centres unmarked) [Compound 34, 2-[5-amino-6-oxo-2-phenyl-1,6-dihydro-1-pyrimidinyl]-N-[1-[[5-(t-butyl)-1,3,4-oxadiazole-2-yl]carbonyl]-2-methylpropyl]acetamide] | – | intentionally suppressed |
